Results as given in PMC6030209, “Structure-Activity Investigations and Optimisations of Non-metabolite Agonists for the Succinate Receptor 1” (Scientific Reports, 2018).
Where two headings read alike, the source gives them in different places.

What was measured:
Format in all cases: cell-based
hSUCNR1 = molecular target: T1, hSUCNR1 (Homo sapiens, UniProt Q9BXA5); assay: IP3 turnover assay in hSUCNR1 transfected HEK-293 cells; details: for hSUCNR1 efficacy, %: efficacy relative to succinate (100%), HEK cells (N = 3); for hSUCNR1 efficacy, % / hSUCNR1 % @10^−4M: IP3 turnover; for hSUCNR1 % @10^−4M: relative to succinate (100%)
T1 construct: FLAG (own knowledge: pCMV-Tag 2B is an N-terminal FLAG vector); host or cells: HEK-293, transient transfection with Lipofectamine-2000
T1 sequence (Q9BXA5 1-334): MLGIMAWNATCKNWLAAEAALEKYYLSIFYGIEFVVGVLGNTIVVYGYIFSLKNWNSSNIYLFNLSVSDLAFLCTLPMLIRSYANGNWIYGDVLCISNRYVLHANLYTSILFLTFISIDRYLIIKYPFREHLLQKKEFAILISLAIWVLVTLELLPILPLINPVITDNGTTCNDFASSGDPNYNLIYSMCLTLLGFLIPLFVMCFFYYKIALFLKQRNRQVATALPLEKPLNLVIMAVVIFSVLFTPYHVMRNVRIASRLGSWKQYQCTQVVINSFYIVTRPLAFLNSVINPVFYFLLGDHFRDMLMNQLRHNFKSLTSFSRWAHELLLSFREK
Description: (§1) Receptor constructs for mSUCNR1 and hSUCNR1 were bought from Origene and cloned into the eukaryotic expression vector pCMV-Tag(2B) (Stratagene).
(§2) Transient transfection of the HEK-293 cells was done with Lipofectamine-2000 according to manufacturer’s protocol. Cells were supplemented with fresh medium after 5 h.
(§3) 96-well plates were coated with poly-D-lysine and HEK-293 cells were plated (35.000 cells/well). Cells were transfected for 5 h the following day and subsequently incubated O/N with 0.5 μCi/mL myo[3H]inositol (Perkin Elmer) in 100 μL growth medium. On day 3 cells were washed with 200 µL HBSS/well (Gibco, Life Technologies) followed by a pre-incubation (30 min, 37 °C) with 100 µL HBSS supplemented with 10 mM LiCl. Cells were stimulated with ligand (120 min, 37 °C) and lysed with 50 µL 10 mM formic acid (30 min on ice). In a white 96 well plate 20 µL cell extracts and 80 µL 1:8 diluted YSi scintillation beads (Perkin Elmer) were mixed. The plate was spun down, and a Packard Top Count NXT counter recorded light emission (scintillation) after an 8 h delay.

mSUCNR1 = molecular target: T2, mSUCNR1 (Mus musculus, UniProt Q99MT6); assay: IP3 turnover assay in mSUCNR1 transfected HEK-293 cells; details: for mSUCNR1 efficacy, %: efficacy relative to succinate (100%), HEK cells (N = 3); for mSUCNR1 efficacy, % / mSUCNR1 % @10^−4M: IP3 turnover; for mSUCNR1 % @10^−4M: relative to succinate (100%)
T2 construct: FLAG (own knowledge: pCMV-Tag 2B is an N-terminal FLAG vector); host or cells: HEK-293, transient transfection with Lipofectamine-2000
T2 sequence (Q99MT6 1-317): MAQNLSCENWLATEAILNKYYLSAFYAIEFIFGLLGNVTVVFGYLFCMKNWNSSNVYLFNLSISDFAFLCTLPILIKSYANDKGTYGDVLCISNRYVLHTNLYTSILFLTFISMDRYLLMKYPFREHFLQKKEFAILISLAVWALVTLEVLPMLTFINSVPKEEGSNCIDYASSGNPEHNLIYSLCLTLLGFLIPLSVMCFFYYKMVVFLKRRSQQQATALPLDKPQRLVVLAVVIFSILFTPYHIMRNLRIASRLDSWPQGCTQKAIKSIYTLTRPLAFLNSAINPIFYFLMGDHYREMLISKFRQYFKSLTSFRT
Description: as §1, §2, §3

SUCNR1 = assay: Active/inactive grouping by EC50 threshold (ALiBERO training set, Table S1); details: active (1) / inactive (0), EC50 threshold of 10 µM
Description: In brief, starting from the homology model supported by mutagenesis data[4], ALiBERO introduced receptor flexibility via Normal Mode Analysis and Monte Carlo sampling, to generate a small subset of receptor models (pockets). […] For a list of all compounds used in the optimisation protocol, see Table S1. Receptor structures were then chosen based on their ability to discriminate actives from inactives in a retrospective virtual screening using the docking protocol and scoring function in ICM (Molsoft L.L.C., San Diego, CA, USA)[20], as measured by the normalised square root area under the curve (NSQ_AUC). […] The ALiBERO-optimised receptor ensemble was subsequently validated in a virtual ligand screening using an external test set with a higher active:decoy ratio (~1:50).
ALiBERO is an iterative sampling-selection protocol for receptor optimisation that relies on the use of ligand information for selecting the best-performing receptor conformations. Homology models of the mouse SUCNR1 receptor were constructed according to Trauelsen et al.[4] and loaded into ICM (Molsoft L.L.C., San Diego, CA, USA). The structure was converted into an ICM object, thereby assigning protein atom types, optimising hydrogens and His, Pro, Asn, […] and Cys side-chain conformations. […] For a list of all compounds used in the optimisation protocol, see Table S1. ALiBERO was performed using the prepared receptor structure and ligand training set as input. Binding site residues were manually selected based on proximity to the position of MRS2500 in the superimposed structure of the P2Y1 receptor (PDB 4XNW). 100 elastic network normal mode analysis derived conformers were built in order to recreate backbone and side-chain flexibility (T = 300 K). Next, a flexible-ligand static-receptor small-scale virtual screening was performed on each of the receptor conformers, from which several pockets were selected for the following generation. The ligand and decoy molecules were docked into mSUCNR1, represented as pre-calculated potential grids and then sorted according to their ICM VLS scores. The maximum number of complementary pockets for each generation was set to 5 with a maximum of 10 generations. Receptor models were selected based on their combined screening performance, as determined by the normalised square root area under the curve, NSQ_AUC. After each round of virtual screening, an all-atom Monte Carlo side-chain refinement was performed to account for induced-by-ligand changes. NSQ_AUC values were calculated according to Katritch et al.[16].

[1] = dose-response curves of induction of IP3 turnover in SUCNR1 transfected HEK cells (N = 3), read-out: hSUCNR1 pEC50 (converted)
[2] = dose-response curves of induction of IP3 turnover in SUCNR1 transfected HEK cells (N = 3), read-out: mSUCNR1 pEC50 (converted)
[3] = relative to the 4-methoxy compound 17
[4] = dose-response curves of induction of IP3 turnover in SUCNR1 transfected HEK cells (N = 3)

## COc1ccc(-c2ccc(C(=O)N[C@@H](CC(=O)O)C(=O)O)o2)cc1 [Compound 17, (5-(4-Methoxyphenyl)furan-2-carbonyl)-L-aspartic acid]
hSUCNR1
  EC50: 389 nM
  hSUCNR1 efficacy, %: 85.3 ± 4.5%
mSUCNR1
  EC50: 40.7 nM
  mSUCNR1 efficacy, %: 84.2 ± 1.8%
SUCNR1
  Active: 1 (active (1))

## O=C(O)C[C@H](NC(=O)c1ccc(Br)cc1)C(=O)O [Compound 7, (4-Bromobenzoyl)-L-aspartic acid]
hSUCNR1
  hSUCNR1 % @10^−4M: 8% @10^−4M
mSUCNR1
  mSUCNR1 % @10^−4M: 15% @10^−4M
SUCNR1
  Active: 0 (inactive (0))

## CCCOc1ccc(-c2cccc(C(=O)N[C@@H](CC(=O)O)C(=O)O)n2)cc1 [Compound 33, (6-(4-Propoxyphenyl)picolinoyl)-L-aspartic acid]
hSUCNR1; [1]
  EC50: 58.9 nM
hSUCNR1
  hSUCNR1 efficacy, %: 66.4 ± 7.2%
mSUCNR1; [2]
  EC50: 51.3 nM
mSUCNR1
  mSUCNR1 efficacy, %: 61.5 ± 3.8%

## O=C(O)C[C@H](NC(=O)Cc1ccc(-c2ccc(F)cc2)cc1)C(=O)O [Compound 9, (2-(4′-Fluoro-[1,1′-biphenyl]-4-yl)acetyl)-L-aspartic acid]
hSUCNR1
  hSUCNR1 % @10^−4M: 25% @10^−4M
mSUCNR1
  mSUCNR1 % @10^−4M: 15% @10^−4M
SUCNR1
  Active: 0 (inactive (0))

## O=C(O)C[C@H](NC(=O)c1ccc(-c2cccc(CO)c2)o1)C(=O)O [Compound 14, (5-(3-(Hydroxymethyl)phenyl)furan-2-carbonyl)-L-aspartic acid]
hSUCNR1
  EC50: 15500 nM
  hSUCNR1 efficacy, %: 74.2 ± 11.8%
mSUCNR1
  EC50: 1950 nM
  mSUCNR1 efficacy, %: 79.6 ± 3.7%
mSUCNR1; relative to the 3-methyl (12), orthologue not stated
  decrease in potency: 3 fold
SUCNR1
  Active: 1 (active (1))

## O=C(O)C[C@H](NC(=O)c1ccc(-c2ccc(OC(F)(F)F)cc2)o1)C(=O)O [Compound 20, (5-(4-(Trifluoromethoxy)phenyl)furan-2-carbonyl)-L-aspartic acid]
hSUCNR1
  EC50: 102 nM
  hSUCNR1 efficacy, %: 61.7 ± 3.6%
hSUCNR1; [3]
  increase in potency on hSUCNR1: 2 fold
mSUCNR1
  EC50: 191 nM
  mSUCNR1 efficacy, %: 69.7 ± 2.8%
mSUCNR1; [3]
  decrease in potency on mSUCNR1: > 4 fold
SUCNR1
  Active: 1 (active (1))

## COc1ccc(-c2cccc(C(=O)N[C@@H](CC(=O)O)C(=O)O)n2)cc1 [Compound 29, (6-(4-Methoxyphenyl)picolinoyl)-L-aspartic acid]
hSUCNR1; [1]
  EC50: 141 nM
hSUCNR1
  hSUCNR1 efficacy, %: 52.6 ± 3.9%
mSUCNR1; [2]
  EC50: 182 nM
mSUCNR1
  mSUCNR1 efficacy, %: 71.2 ± 3.2%
SUCNR1
  Active: 1 (active (1))

## O=C(O)C[C@H](NC(=O)c1cccc(-c2ccc(OC(F)(F)F)cc2)c1)C(=O)O [Compound 30, (4′-(Trifluoromethoxy)-[1,1′-biphenyl]-3-carbonyl)-L-aspartic acid]
hSUCNR1; [1]
  EC50: 58.9 nM
hSUCNR1
  hSUCNR1 efficacy, %: 49.2 ± 2.7%
mSUCNR1; [2]
  EC50: 1450 nM
mSUCNR1
  mSUCNR1 efficacy, %: 45.3 ± 3.4%
SUCNR1
  Active: 1 (active (1))

## CC(C)Oc1ccc(-c2ccc(C(=O)N[C@@H](CC(=O)O)C(=O)O)o2)cc1 [Compound 22, (5-(4-Isopropoxyphenyl)furan-2-carbonyl)-L-aspartic acid]
hSUCNR1
  EC50: 145 nM
  hSUCNR1 efficacy, %: 69.6 ± 4.3%
mSUCNR1
  EC50: 51.3 nM
  mSUCNR1 efficacy, %: 75.6 ± 1.7%
SUCNR1
  Active: 1 (active (1))

## Cc1ccccc1-c1ccc(C(=O)N[C@@H](CC(=O)O)C(=O)O)o1 [Compound 11, (5-(o-Tolyl)furan-2-carbonyl)-L-aspartic acid]
hSUCNR1
  EC50: 5370 nM
  hSUCNR1 efficacy, %: 94.7 ± 8.7%
mSUCNR1
  EC50: 741 nM
  mSUCNR1 efficacy, %: 76.7 ± 3.1%
SUCNR1
  Active: 1 (active (1))

## O=C(O)C[C@H](NC(=O)c1ccc(-c2ccccc2)o1)C(=O)O [Compound 10, (5-Phenylfuran-2-carbonyl)-L-aspartic acid]
hSUCNR1
  EC50: 5130 nM
  hSUCNR1 efficacy, %: 81.6 ± 8.4%
mSUCNR1
  EC50: 692 nM
  mSUCNR1 efficacy, %: 81.3 ± 3.6%
SUCNR1
  Active: 1 (active (1))

## Cc1cccc(-c2ccc(C(=O)N[C@@H](CC(=O)O)C(=O)O)o2)c1 [Compound 12, (5-(m-Tolyl)furan-2-carbonyl)-L-aspartic acid]
hSUCNR1
  EC50: 9550 nM
  hSUCNR1 efficacy, %: 91.9 ± 5.3%
mSUCNR1
  EC50: 851 nM
  mSUCNR1 efficacy, %: 81.6 ± 3.0%
SUCNR1
  Active: 1 (active (1))

## Cc1ccc(-c2ccc(C(=O)N[C@@H](CC(=O)O)C(=O)O)o2)cc1 [Compound 13, (5-(p-Tolyl)furan-2-carbonyl)-L-aspartic acid]
hSUCNR1; [4]
  hSUCNR1 pEC50: 6.33 ± 0.14
hSUCNR1
  hSUCNR1 efficacy, %: 69.1 ± 3.9%
mSUCNR1; [4]
  mSUCNR1 pEC50: 6.83 ± 0.11
mSUCNR1
  mSUCNR1 efficacy, %: 73.2 ± 2.7%
SUCNR1
  Active: 1 (active (1))

## CC1(COc2ccc(-c3ccc(C(=O)N[C@@H](CC(=O)O)C(=O)O)o3)cc2)COC1 [Compound 23, (5-(4-((3-Methyloxetan-3-yl)methoxy)phenyl)furan-2-carbonyl)-L-aspartic acid]
hSUCNR1
  EC50: 537 nM
  hSUCNR1 efficacy, %: 76.5 ± 3.1%
mSUCNR1
  EC50: 107 nM
  mSUCNR1 efficacy, %: 82.4 ± 1.9%
mSUCNR1; relative to the 4-methoxy compound 17, orthologue not stated
  reduction of potency: > 2 fold
SUCNR1
  Active: 1 (active (1))

## O=C(O)C[C@H](NC(=O)c1ccc(Br)o1)C(=O)O [Compound 4, (5-Bromofuran-2-carbonyl)-L-aspartic acid]
hSUCNR1; [4]
  hSUCNR1 pEC50: 4.53 ± 0.13
hSUCNR1
  hSUCNR1 efficacy, %: 78.1 ± 7.5%
mSUCNR1; [4]
  mSUCNR1 pEC50: 4.93 ± 0.05
mSUCNR1
  mSUCNR1 efficacy, %: 95.8 ± 2.9%
SUCNR1
  Active: 0 (inactive (0))

## O=C(O)C[C@H](NC(=O)Cc1ccc(Br)cc1)C(=O)O [Compound 8, (2-(4-Bromophenyl)acetyl)-L-aspartic acid]
hSUCNR1
  hSUCNR1 % @10^−4M: 5% @10^−4M
mSUCNR1
  mSUCNR1 % @10^−4M: 11% @10^−4M
SUCNR1
  Active: 0 (inactive (0))

## O=C(O)C[C@H](NC(=O)c1ccccc1Cl)C(=O)O [Compound 5, (2-Chlorobenzoyl)-L-aspartic acid]
hSUCNR1
  hSUCNR1 % @10^−4M: 22% @10^−4M
mSUCNR1
  mSUCNR1 % @10^−4M: 13% @10^−4M
SUCNR1
  Active: 0 (inactive (0))

## O=C(O)C[C@H](NC(=O)c1cccc(-c2ccc(OCC(F)(F)F)cc2)n1)C(=O)O [Compound 32, (6-(4-(2,2,2-Trifluoroethoxy)phenyl)picolinoyl)-L-aspartic acid]
hSUCNR1; [1]
  EC50: 58.9 nM
hSUCNR1
  hSUCNR1 efficacy, %: 88.7 ± 6.1%
mSUCNR1; [2]
  EC50: 100 nM
mSUCNR1
  mSUCNR1 efficacy, %: 68.1 ± 2.5%
